From US20080299140A1, “Immunogenic Composition and Peptide Sequences for Prevention and Treatment of an Hsv Condition” (priority 2002, published 2008) come the findings set out here.

Assay [1] deals with lymphocytes obtained from HSV-1 infected H-2^d mice. The assay is described as follows: HSV-primed T-cell responses to gD peptides in HSV-1 infected mice. The format is cell-based. Particulars: HSV-1 infected H-2^d mice. The procedure: Twelve days after the second immunization, spleen and inguinal lymph nodes (LN) were removed and placed into ice-cold serum free HL-1 medium supplemented with 15 mM HEPES, 5×10^−5 M β-mercaptoethanol, 2 mM glutamine, 50 U of penicillin and 50 μg of streptomycin (GIBCO-BRL, Grand Island, N.Y.) (complete medium, CM). The cells were cultured in 96-well plates at 5×10^5 cells/well in CM, with recall or control peptide at 30, 10, 3, 1, or 0.3 μg/ml concentration, as previously described in (BenMohamed et al., 2000 and 2002). The cell suspensions were incubated for 72 h at 37° C. in 5% CO2. One μCi (micro-curie) of (^3H)-thymidine (Dupont MEN, Boston, Mass.) was added to each well during the last 16 h of culture. The incorporated radioactivity was determined by harvesting cells onto glass fiber filters and counted on a Matrix 96 direct ionization-counter (Packard Instruments, Meriden, Conn.). Results were expressed as the mean cpm of cell-associated (^3H)-thymidine recovered from wells containing Ag minus the mean cpm of cell-associated (^3H)-thymidine recovered from wells without Ag (A cpm) (average of triplicate). The Stimulation Index (SI) was calculated as the mean cpm of cell-associated (^3H)-thymidine recovered from wells containing Ag divided by the mean cpm of cell-associated (^3H)-thymidine recovered from wells without Ag (average of triplicate). For all experiments the irrelevant control peptide gB141-165 and the T-cell mitogen Concanavalin A (ConA) (Sigma, St. Louis, Mo.) were used as negative and positive controls, respectively. Proliferation results were confirmed by repeating each experiment twice. A T-cell proliferative response was considered positive when A cpm>1000 and SI>2.
To define the fine specificity of broadly reactive T-cells associated with viral immunity and to explore immunodominance in the context of HSV infection, proliferation of lymphocytes obtained from twenty HSV-1 infected H-2^d mice were evaluated using the twelve gD peptides as Ag (FIG. 6). […] Despite a difference between individual mice, a unique array of T-cell responses was identified for each of the twenty infected mice analyzed.

In assay [2] the test system is HLA-DR and HLA-DP molecules. The assay is described as follows: MHC class II binding assays, panel of twelve HLA class II molecules (number of alleles bound). Particulars: number of the twelve class II MHC alleles bound; title: Threshold 600 nM/5 alleles.
In assay [3] the target is T1, DP401=HLA-DP(α1*0101,α1*0401) (Homo sapiens, UniProt P04440+P20036).
T1 sequence (P20036 32-260 limits assumed): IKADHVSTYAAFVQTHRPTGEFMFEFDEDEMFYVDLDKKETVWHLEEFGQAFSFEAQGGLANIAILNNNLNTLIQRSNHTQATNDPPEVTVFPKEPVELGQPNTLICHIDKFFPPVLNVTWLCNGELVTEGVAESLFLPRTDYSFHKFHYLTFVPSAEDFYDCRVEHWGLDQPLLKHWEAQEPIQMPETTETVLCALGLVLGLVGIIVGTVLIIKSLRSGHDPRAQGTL
T1 sequence (P04440 30-258): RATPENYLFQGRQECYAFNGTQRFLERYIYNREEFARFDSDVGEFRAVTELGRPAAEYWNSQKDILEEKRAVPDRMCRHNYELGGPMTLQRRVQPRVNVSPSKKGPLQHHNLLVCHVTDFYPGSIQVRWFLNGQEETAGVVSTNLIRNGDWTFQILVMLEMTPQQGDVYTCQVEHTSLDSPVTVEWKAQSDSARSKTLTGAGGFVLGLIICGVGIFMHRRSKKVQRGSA
The assay is described as follows: biochemical. In kind it is binding.

Assay [4] has as its target T2, DR4=HLA-DR(α1*0101,α1*0401) (Homo sapiens, UniProt P01903+P01911, A100K/A169T/F76Y/I96L/K127E/L162R/M171V/N62H/P40V/Q125Y/R42H/S133A/S149N/S66Y/V115G/V209L/W38E).
T2 construct: endogenous in cells; host or cells: BOLETH (EBV homozygous B cell line)
The assay is described as follows: biochemical. In kind it is binding.

Assay [5] addresses T3, DR7=HLA-DR(α1*0101,α1*0701) (Homo sapiens, UniProt P01903+P01911, A100R/A102G/A103Q/D57E/D86V/E43K/F76Y/K127E/L162R/M171V/P40G/Q125H/Q99D/R33Q/R42Y/R54Q/S133A/S66F/T210M/V115G/Y107V/Y59L/Y89S).
T3 construct: endogenous in cells; host or cells: EBV homozygous human B cell line
Nature of the assay: HLA-DR specific binding assay, DR7.

For assay [6], the target named is T4, DRB3=HLA-DR(α1*0101,α3*0101) (Homo sapiens, UniProt P01903+P79483).
T4 construct: endogenous in cells; host or cells: STEILIN or 0206AD (both typed DRB3*0101)
The assay is described as follows: HLA-DR specific binding assay, DRB3 (DR52).

Assay [7] addresses T5, DRB5=HLA-DR(α1*0101,α5*0101) (Homo sapiens, UniProt P01903+Q30154).
T5 construct: endogenous in cells; host or cells: EBV homozygous human B cell line
The assay is described as follows: biochemical. In kind it is binding. Particulars: Table V; […]; read-out: IC50 DRB5.

Assay [8] has as its target T6, DR1=HLA-DR(α1*0101,α1*0101) (Homo sapiens, UniProt P01903+P01911, A100R/D57E/F55L/F60I/F76Y/I96L/L162R/M171V/P40L/Q125E/R42F/V115G/Y59C).
T6 construct: endogenous in cells; host or cells: EBV homozygous human B cell line
The assay is described as follows: biochemical. The format is binding. To be noted: […].

Assay [9] concerns the target T7, DR13=HLA-DR(α1*0101,α1*1301) (Homo sapiens, UniProt P01903+P01911, A100E/A169T/K41T/L162R/M171V/P40S/Q125H/Q178H/Q39Y/Q99D/R42S/S66N/T262R/W38E/Y61H).
T7 construct: endogenous in cells; host or cells: 0206AD (EBV homozygous B cell line)
Nature of the assay: HLA-DR specific binding assay, DR13.

The target of assay [10] is T8, DR15=HLA-DR(α1*0101,α1*1501) (Homo sapiens, UniProt P01903+P01911).
T8 construct: endogenous in cells; host or cells: EBV homozygous human B cell line
Nature of the assay: HLA-DR specific binding assay, DR15.

For assay [11], the target named is T9, DRB4=HLA-DR(α1*0101,α4*0101) (Homo sapiens, UniProt P01903+P13762, G164S).
T9 construct: endogenous in cells
The assay is described as follows: HLA-DR specific binding assay, DRB4 (DR53).

The target of assay [12] is T10, DR3=HLA-DR(α1*0101,α1*0301) (Homo sapiens, UniProt P01903+P01911, A100K/A102G/A103R/A169T/F55Y/I96L/K41T/L162R/M171V/P40S/Q125H/Q178H/Q39Y/R42S/S66N/T106N/T262R/W38E/Y61H).
T10 construct: endogenous in cells; host or cells: STEILIN (EBV homozygous B cell line)
Nature of the assay: HLA-DR specific binding assay, DR3.

In assay [13] the target is T11, DR11=HLA-DR(α1*0101,α1*1101) (Homo sapiens, UniProt P01903+P01911, A100R/A169T/A87E/I96F/K41T/L162R/M171V/P40S/Q125H/Q178H/Q39Y/Q99D/R42S/S66Y/T262R/V115G/W38E).
T11 construct: endogenous in cells; host or cells: SWEIG (EBV homozygous B cell line)
Nature of the assay: biochemical. In kind it is binding.

The target in assay [14] is T12, DP402 DP (α1*0101, α1*0402) (Homo sapiens, UniProt P04440+P20036, A65V/A84D/A85E/L207M).
T12 sequence (P20036 29-260): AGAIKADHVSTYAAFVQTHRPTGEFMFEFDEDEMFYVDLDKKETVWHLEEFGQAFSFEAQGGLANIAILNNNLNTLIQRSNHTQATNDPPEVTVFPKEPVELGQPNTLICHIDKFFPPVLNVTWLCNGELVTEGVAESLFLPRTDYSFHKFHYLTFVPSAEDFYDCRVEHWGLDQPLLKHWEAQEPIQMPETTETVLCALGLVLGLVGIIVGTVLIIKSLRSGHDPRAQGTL
T12 sequence (P04440 30-258 A65V/A84D/A85E): T1 sequence (P04440 30-258) with A36V, A55D, A56E
The assay is described as follows: biochemical. The format is binding.

Molecules are shown by their SMILES. Numbering of substitutions follows the chain as printed. pIC50: −log10 of the molar value. Where two headings read alike, the source gives them in different places. Bounds are passed on as bounds.

T4 sequence (P79483 30-266, other chains not shown): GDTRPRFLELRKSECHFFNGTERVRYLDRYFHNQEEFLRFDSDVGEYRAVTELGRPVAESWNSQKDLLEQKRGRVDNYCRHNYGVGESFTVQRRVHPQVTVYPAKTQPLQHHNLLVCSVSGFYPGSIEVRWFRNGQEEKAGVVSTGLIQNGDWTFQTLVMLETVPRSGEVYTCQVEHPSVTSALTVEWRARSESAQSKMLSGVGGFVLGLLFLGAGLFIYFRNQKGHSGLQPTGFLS
T5 sequence (Q30154 30-266, other chains not shown): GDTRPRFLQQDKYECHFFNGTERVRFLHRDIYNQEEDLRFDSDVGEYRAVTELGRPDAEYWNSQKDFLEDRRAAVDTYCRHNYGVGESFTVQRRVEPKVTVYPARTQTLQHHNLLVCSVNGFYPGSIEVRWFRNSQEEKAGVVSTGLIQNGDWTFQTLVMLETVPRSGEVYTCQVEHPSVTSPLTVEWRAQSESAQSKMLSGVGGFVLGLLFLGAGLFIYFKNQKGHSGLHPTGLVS

For `CC[C@H](C)[C@H](NC(=O)[C@@H](N)[C@@H](C)O)C(=O)N[C@@H](C)C(=O)N[C@@H](Cc1c[nH]c2ccccc12)C(=O)N[C@@H](Cc1ccccc1)C(=O)N[C@@H](CCCNC(=N)N)C(=O)N[C@@H](CCSC)C(=O)NCC(=O)NCC(=O)N[C@@H](CC(N)=O)C(=O)N[C@@H](CS)C(=O)N[C@@H](C)C(=O)N[C@H](C(=O)N1CCC[C@H]1C(=O)N[C@H](C(=O)N[C@H](C(=O)N[C@H](C(=O)N[C@@H](CCSC)C(=O)N[C@@H](CCC(=O)O)C(=O)N[C@@H](Cc1ccc(O)cc1)C(=O)N[C@H](C(=O)N[C@@H](CCC(=O)O)C(=O)N[C@@H](CS)C(=O)N[C@@H](CO)C(=O)N[C@@H](Cc1ccc(O)cc1)C(=O)N[C@@H](CC(N)=O)C(=O)N[C@@H](CCCCN)C(=O)N[C@@H](CO)C(=O)O)[C@@H](C)O)C(C)C)[C@@H](C)O)[C@@H](C)CC)[C@@H](C)CC` [HSV 41], in assay [1], the “immunodominance of epitopes in HSV-primed T-cell responses” value is listed as “subdominant epitopes”. For the same molecule, the Range in assay [2] turned out to be 8.
The pIC50 is the negative decadic logarithm of the IC50, by convention in mol/L. Consider `CSCC[C@H](NC(=O)[C@H](CCCCN)NC(=O)[C@H](CC(C)C)NC(=O)[C@H](CO)NC(=O)[C@H](C)NC(=O)[C@H](CC(=O)O)NC(=O)[C@@H](NC(=O)[C@H](CC(C)C)NC(=O)[C@H](C)NC(=O)[C@H](Cc1ccc(O)cc1)NC(=O)[C@@H](N)CCCCN)C(C)C)C(=O)N[C@@H](C)C(=O)N[C@@H](CC(=O)O)C(=O)N1CCC[C@H]1C(=O)N[C@@H](CC(N)=O)C(=O)N[C@@H](CCCNC(=N)N)C(=O)N[C@@H](Cc1ccccc1)C(=O)N[C@@H](CCCNC(=N)N)C(=O)NCC(=O)N[C@@H](CCCCN)C(=O)N[C@@H](CC(=O)O)C(=O)N[C@@H](CC(C)C)C(=O)N1CCC[C@H]1C(=O)O` [HSV 29], for which the pIC50 was 4.76 in assay [3] (Class II MHC allele DP401); 4.76 in assay [3] (Table V, […]); 7.09 in assay [4] (Class II MHC allele DR4, read-out: IC50, DR4); 7.09 in [4] (Table V, […], read-out: IC50 DR4); 6.05 in [5]; 5.86 in assay [6] (IC50, DRD3, Class II MHC allele DRD3 (so in the source)). Besides, the pIC50 in assay [6] (IC50 DRB3, Table V, […]) was 5.86; in [7], 8.10; in [8] (Table V, read-out: IC50 DR1), 5.91; in assay [8] (Class II MHC allele DR1, read-out: IC50, DR1), 5.91; in [9] it was below 4.00; in assay [9] (read-out: IC50, DR13, Class II MHC allele DR13), below 4.00. In addition, the pIC50 is 4.61 in [10]; 4.28 in assay [11]; 6.92 in assay [12] (IC50, DR3, Class II MHC allele DR3); 6.92 in [12] (IC50 DR3, Table V, […]); 5.28 in assay [13] (Class II MHC allele DR11, read-out: IC50, DR11); 5.28 in assay [13] (Table V, […], read-out: IC50 DR11). In addition, the pIC50 in [14] (Class II MHC allele DP402) is 5.79; in [14] (Table V, […]) it was 5.79. Moreover, the Range in [2] is reported as 3.
